Legend:
[1] = Pharmacokinetics of endomorphin-1 liposome (plasma, LC-MS/MS); assay type: in vivo, wistar mouse; conditions: 7.5 mg/kg, after 2 hr
Method: The plasma concentration of endomorphin-1 of a wistar mouse was analyzed by LC-MS/MS to study the pharmacokinetics of the endomorphin-1 liposome. […] However, the endomorphin-1 liposomes of Examples 14 and 17 prolonged the retention time of the endomorphin-1 in plasma to 24 hr. Also, T1/2 was prolonged from 6 min. to 2.4 hr and 1.8 hr, respectively.

[2] = Serum stability test of met-enkephalin liposome in fetal bovine serum; assay type: in vitro ADME; conditions: fetal bovine serum 1:1 (v/v), 37° C. water bath, 0, 1, 2 and 4 hours, gel filtration
Description: The 2 carriers provided by Example 5 and fetal bovine serum (FBS) were mixed with 1:1 (v/v) to form a solution.

NC(=O)[C@H](Cc1ccccc1)NC(=O)[C@H](Cc1c[nH]c2ccccc12)NC(=O)[C@@H]1CCCN1C(=O)[C@@H](N)Cc1ccc(O)cc1 [endomorphin-1 solution, endomorphin-1]
plasma concentration of endomorphin-1 [1]: no endomorphin-1 was detected

met-enkephalin [free met-enkephalin]
residual concentration of met-enkephalin [2]: 2%

From US7704956B2, “Glutathione-based delivery system” (Industrial Technology Research Institute, priority 2005, dated 2010)
